From US10954225B2, “Selective NR2B antagonists” (Bristol-Myers Squibb Company, priority 2015, dated 2021)

What was measured:
[1] = biological target: NR2B-subtype NMDA receptors (Rattus norvegicus (Rat), UniProt P35439+Q00960); assay: Radioligand binding assay (3H Ro 25-6981 competition, rat forebrain membranes); conditions: 3H Ro 25-6981 (4 nM)
Procedure: Radioligand Binding Assay.
Binding experiments to determine binding to NR2B-subtype NMDA receptors were performed on forebrains of 8-10 weeks old male Sprague Dawley rats (Harlan, Netherlands) using ^3H Ro 25-6981 (Mutel V; Buchy D; Klingelschmidt A; Messer J; Bleuel Z; Kemp J A; Richards J G. Journal of Neurochemistry, 1998, 70(5):2147-2155. Rats were decapitated without anesthesia using a Guillotine (approved by animal ethics committee) and the harvested brains were snap-frozen and stored at −80° C. for 3-6 months for membrane preparation.
For membrane preparation, rat forebrains were thawed on ice for 20 minutes in homogenization buffer composed of 50 mM KH2PO4 (pH adjusted to 7.4 with KOH), 1 mM EDTA, 0.005% Triton X 100 and protease inhibitor cocktail (Sigma Aldrich). Thawed brains were homogenized using a Dounce homogenizer and centrifuged at 48000×g for 20 min. The pellet was resuspended in cold buffer and homogenized again using a Dounce homogenizer. Subsequently, the homogenate was aliquoted, snap-frozen and stored at −80° C. for not more than 3-4 months.
To perform the competition binding assay, thawed membrane homogenate was added to each well of a 96-well plate (20 μg/well). […] The filter plates were dried at 50° C. for 20 mins, incubated with microscint 20 for 10 minutes and finally, the counts were read on TopCount (Perkin Elmer).

[2] = biological target: brain-resident NR2B-subtype receptors (Mus musculus (Mouse), UniProt P35438+Q01097); assay: Ex vivo occupancy assay; format: in vivo; conditions: animals after dosing; no dose stated
Chain of brain-resident NR2B-subtype receptors (Q01097 27-1482, other chains not shown): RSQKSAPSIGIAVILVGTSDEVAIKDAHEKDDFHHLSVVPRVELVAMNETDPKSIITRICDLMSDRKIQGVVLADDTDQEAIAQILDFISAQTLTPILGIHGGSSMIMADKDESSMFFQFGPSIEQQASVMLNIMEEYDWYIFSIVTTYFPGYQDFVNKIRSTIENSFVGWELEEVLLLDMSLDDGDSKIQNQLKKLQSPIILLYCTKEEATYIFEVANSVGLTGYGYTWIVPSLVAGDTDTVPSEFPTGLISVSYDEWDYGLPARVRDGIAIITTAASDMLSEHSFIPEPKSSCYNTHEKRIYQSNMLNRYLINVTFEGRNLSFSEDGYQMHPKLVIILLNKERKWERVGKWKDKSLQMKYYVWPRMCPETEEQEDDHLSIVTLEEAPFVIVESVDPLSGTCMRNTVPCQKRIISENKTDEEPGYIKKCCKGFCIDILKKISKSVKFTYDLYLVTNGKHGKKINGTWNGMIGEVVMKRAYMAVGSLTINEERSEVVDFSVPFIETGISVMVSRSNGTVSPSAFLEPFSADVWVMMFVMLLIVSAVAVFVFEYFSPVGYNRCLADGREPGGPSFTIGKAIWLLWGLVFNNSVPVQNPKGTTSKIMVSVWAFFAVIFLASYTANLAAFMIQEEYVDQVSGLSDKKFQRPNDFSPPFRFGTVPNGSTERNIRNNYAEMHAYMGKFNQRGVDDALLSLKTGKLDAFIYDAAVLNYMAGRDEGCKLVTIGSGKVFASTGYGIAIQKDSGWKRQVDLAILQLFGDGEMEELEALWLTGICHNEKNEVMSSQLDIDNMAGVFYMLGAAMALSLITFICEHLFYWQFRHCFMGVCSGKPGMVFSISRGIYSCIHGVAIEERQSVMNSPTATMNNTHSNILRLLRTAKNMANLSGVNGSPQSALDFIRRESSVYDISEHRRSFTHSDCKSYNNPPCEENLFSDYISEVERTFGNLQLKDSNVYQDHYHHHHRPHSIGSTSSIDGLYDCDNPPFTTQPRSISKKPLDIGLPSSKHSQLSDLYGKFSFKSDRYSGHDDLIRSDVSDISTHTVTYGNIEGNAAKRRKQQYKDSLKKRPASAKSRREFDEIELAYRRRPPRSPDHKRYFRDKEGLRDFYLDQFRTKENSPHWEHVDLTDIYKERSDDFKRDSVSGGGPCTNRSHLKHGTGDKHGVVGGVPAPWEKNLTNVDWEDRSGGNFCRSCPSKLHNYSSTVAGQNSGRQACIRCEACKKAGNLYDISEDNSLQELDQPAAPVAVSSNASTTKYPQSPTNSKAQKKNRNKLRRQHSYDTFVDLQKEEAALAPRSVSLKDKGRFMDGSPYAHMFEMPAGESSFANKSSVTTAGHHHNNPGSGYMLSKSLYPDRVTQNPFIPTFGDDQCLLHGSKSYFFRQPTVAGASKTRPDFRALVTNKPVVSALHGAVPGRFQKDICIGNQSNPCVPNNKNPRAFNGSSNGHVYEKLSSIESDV
Procedure: 7-9 weeks old male CD-1 mice were dosed intravenously in a vehicle consisting of 10% dimethylacetamide, 40% PEG-400, 30% hydroxypropyl betacyclodextrin, and 30% water with experimental compounds and the forebrains were harvested 15 minutes post-dosing by decapitation. The brain samples were immediately snap-frozen and stored at −80° C. On the following day, the dosed brain samples were thawed on ice for 15-20 minutes followed by homogenization using Polytron for 10 seconds in cold homogenization buffer composed of 50 mM KH2PO4 (pH adjusted to 7.4 with KOH), 1 mM EDTA, 0.005% Triton X 100 and protease inhibitor cocktail (Sigma Aldrich). The crude homogenates were further homogenized using a Dounce homogenizer and the homogenized membrane aliquots from all animals were flash-frozen and stored at −80° C. until further use. The whole homogenization process was performed on ice. For determining occupancy, the membrane homogenates were first thawed on ice and then needle-homogenized using a 25 gauge needle. The homogenized membrane (6.4 mg/ml) was added to a 96-well plate followed by addition of ^3H Ro 25-6981 (6 nM). […] The filter plates were dried at 50° C. for 20 mins, incubated with microscint 20 for 10 minutes and read on TopCount (Perkin Elmer). […] Non-specific binding was determined using 10 μM Ro 25-6981 added to the wells containing membrane homogenates from vehicle-dosed animals. […]

[3] = system: mice; assay: Mouse Forced Swim Test (mFST); format: in vivo; conditions: 1 mg/Kg i.v., 15 min before swim session
Procedure: Mouse Forced Swim Test (mFST).
Forced Swim Test (FST) is an animal model used to assess antidepressant compounds in preclinical studies. The FST was performed similar to the method of Porsolt et al. with modifications (Porsolt R D, Bertin A, Jalfre M. Behavioral despair in mice: a primary screening test for antidepressants. Arch Int Pharmacodyn Ther 1977; 229:327-36). In this paradigm, mice are forced to swim in an inescapable cylinder filled with water. Under these conditions, mice will initially try to escape and eventually develop immobility behavior; this behavior is interpreted as a passive stress-coping strategy or depression-like behavior. […] The duration of immobility was evaluated during the total 6 min of the test and expressed as duration (sec) of immobility. […] All testing sessions were recorded with a video camera (Sony Handicam, Model: DCR-HC38E; PAL) and scoring was done using the Forced Swim Scan, Version 2.0 software (Clever Systems Inc., Reston, Va., USA; see Hayashi E, Shimamura M, Kuratani K, Kinoshita M, Hara H. Automated experimental system capturing three behavioral components during murine forced swim test. Life Sci. 2011 Feb. 28; 88(9-10):411-7 and Yuan P, Tragon T, Xia M, Leclair C A, Skoumbourdis A P, Zheng W, Thomas C J, Huang R, Austin C P, Chen G, Guitart X. Phosphodiesterase 4 inhibitors enhance sexual pleasure-seeking activity in rodents. […]

Chain of NR2B-subtype NMDA receptors (Q00960 27-1482, other chains not shown): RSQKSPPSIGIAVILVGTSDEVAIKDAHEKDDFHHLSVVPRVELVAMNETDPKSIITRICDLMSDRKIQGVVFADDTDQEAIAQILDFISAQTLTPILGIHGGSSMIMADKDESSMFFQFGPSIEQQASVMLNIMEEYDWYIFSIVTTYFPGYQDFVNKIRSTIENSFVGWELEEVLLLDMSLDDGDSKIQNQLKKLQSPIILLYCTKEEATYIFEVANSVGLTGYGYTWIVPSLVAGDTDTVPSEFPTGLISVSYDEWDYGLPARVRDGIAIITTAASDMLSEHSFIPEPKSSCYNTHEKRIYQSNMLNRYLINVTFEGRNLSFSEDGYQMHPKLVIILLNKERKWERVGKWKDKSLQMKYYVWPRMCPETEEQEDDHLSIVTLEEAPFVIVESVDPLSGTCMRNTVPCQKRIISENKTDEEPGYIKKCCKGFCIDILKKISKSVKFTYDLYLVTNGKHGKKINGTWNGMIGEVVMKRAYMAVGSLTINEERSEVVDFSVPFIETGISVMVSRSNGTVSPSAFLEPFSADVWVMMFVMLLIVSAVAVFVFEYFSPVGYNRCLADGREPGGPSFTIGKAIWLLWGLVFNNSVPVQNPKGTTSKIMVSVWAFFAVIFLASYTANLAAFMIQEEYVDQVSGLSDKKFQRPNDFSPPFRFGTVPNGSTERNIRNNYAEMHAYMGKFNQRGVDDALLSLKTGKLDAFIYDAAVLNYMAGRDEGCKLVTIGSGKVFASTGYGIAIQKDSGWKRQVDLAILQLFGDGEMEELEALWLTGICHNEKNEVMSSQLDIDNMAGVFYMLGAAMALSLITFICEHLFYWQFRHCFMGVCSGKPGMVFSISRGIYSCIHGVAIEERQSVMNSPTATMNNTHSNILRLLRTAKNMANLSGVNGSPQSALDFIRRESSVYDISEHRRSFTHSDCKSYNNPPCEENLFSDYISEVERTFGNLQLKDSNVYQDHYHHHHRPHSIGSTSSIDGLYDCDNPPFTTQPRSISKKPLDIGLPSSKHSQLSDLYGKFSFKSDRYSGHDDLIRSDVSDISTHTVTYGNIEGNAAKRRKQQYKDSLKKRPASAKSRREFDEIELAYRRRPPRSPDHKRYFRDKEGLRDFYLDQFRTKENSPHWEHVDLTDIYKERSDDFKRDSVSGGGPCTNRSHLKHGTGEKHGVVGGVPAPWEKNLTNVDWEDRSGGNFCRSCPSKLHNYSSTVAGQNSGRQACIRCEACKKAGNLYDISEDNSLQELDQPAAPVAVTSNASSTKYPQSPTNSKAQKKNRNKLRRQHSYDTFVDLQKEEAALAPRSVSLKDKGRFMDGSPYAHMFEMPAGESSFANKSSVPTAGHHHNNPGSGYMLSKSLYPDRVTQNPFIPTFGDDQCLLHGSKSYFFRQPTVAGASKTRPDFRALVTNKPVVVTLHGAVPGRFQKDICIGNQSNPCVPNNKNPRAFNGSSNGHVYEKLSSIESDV

O=C1C(N2CCC(c3ccc(O)cn3)CC2)CON1Cc1ccc(F)cc1 (racemic) [Example 3, 2-(4-fluorobenzyl)-4-(4-(5-hydroxypyridin-2-yl)piperidin-1-yl)isoxazolidin-3-one] showed a Ki [1] of 15.1 nM.

For Cc1ccc(CN2OCCC(N3CCC(c4ccc(O)cc4)CC3)C2=O)cc1 (racemic) [Example 4, 4-(4-(4-hydroxyphenyl)piperidin-1-yl)-2-(4-methylbenzyl)-1,2-oxazinan-3-one], the Ki [1] was 5.49 nM.

Cc1ccc(CN2OCC(N3CCC(c4ccc(O)cc4)CC3)C2=O)cc1 (single isomer, unassigned) [2,P-2, 4-(4-(4-hydroxyphenyl)piperidin-1-yl)-2-(4-methylbenzyl)isoxazolidin-3-one] was tested, and the “occupancy of brain-resident NR2B-subtype receptors (in words)” value [2] was “occupies brain-resident NR2B-subtype receptors”.

In the case of Cc1ccc(CN2OCC(N3CCN(c4ccc(O)cn4)CC3)C2=O)cc1 (single isomer, unassigned) [10,P-1, 4-(4-(5-hydroxypyridin-2-yl)piperazin-1-yl)-2-(4-methylbenzyl)isoxazolidin-3-one], the immobility time [3] is reported as “statistically significant decrease in immobility time”.
